Activity calls are given as the source filed them. How the calls were made is not given here.
Test system: rodent carcinogenicity bioassays, tumor incidence
Assay: CCRIS carcinogenicity studies
Conditions: Route: ORAL
Method in brief: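 Archive of carcinogenicity, mutagenicity, tumor promotion and tumor inhibition results drawn from journals, NCI reports and other sources, expert-reviewed; covers 1985-2011 and is no longer updated.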

Measured: carcinogen call

O=NN1CCCCCC1
active: Species: MOUSE, Strain/Sex: NZB/FEMALE, Dose: 0, 1.56 NMOL IN DRINKING WATER 5D/WK FOR 8 WK FOR A TOTAL DOSE OF 0, 6.4 MILLIMOLAR/KG (STUDY DURATION: 400-600 D), Dose: 0, 1.56 NMOL IN DRINKING WATER 5D/WK FOR 8 WK FOR A TOTAL DOSE OF 0, 6.4 MILLIMOLAR/KG (STUDY DURATION: 400-600 D), Tumor Site: Type of Lesion: OROPHARYNX: PAPILLOMA OR CARCINOMA, ESOPHAGUS: PAPILLOMA OR CARCINOMA, STOMACH: SQUAMOUS CELL CARCINOMA, LIVER: HEPATOCE, Tumor Site: Type of Lesion: OROPHARYNX: PAPILLOMA OR CARCINOMA, ESOPHAGUS: PAPILLOMA OR CARCINOMA, STOMACH: SQUAMOUS CELL CARCINOMA, LIVER: HEPATOCE active; positive | Species: MOUSE, Strain/Sex: NZB/MALE, Dose: 0, 1.56 NMOL IN DRINKING WATER 5D/WK FOR 8 WK FOR A TOTAL DOSE OF 0, 5.4 MILLIMOLAR/KG (STUDY DURATION: 400-600 D), Dose: 0, 1.56 NMOL IN DRINKING WATER 5D/WK FOR 8 WK FOR A TOTAL DOSE OF 0, 5.4 MILLIMOLAR/KG (STUDY DURATION: 400-600 D), Tumor Site: Type of Lesion: ESOPHAGUS: PAPILLOMA OR CARCINOMA, STOMACH: SQUAMOUS CELL CARCINOMA, LIVER: HEPATOCELLULAR TUMOR, LUNG: ALVEOLAR ADENOMA, Tumor Site: Type of Lesion: ESOPHAGUS: PAPILLOMA OR CARCINOMA, STOMACH: SQUAMOUS CELL CARCINOMA, LIVER: HEPATOCELLULAR TUMOR, LUNG: ALVEOLAR ADENOMA active; positive | Species: MOUSE, Strain/Sex: NZC/FEMALE, Dose: 0, 1.56 NMOL IN DRINKING WATER 5D/WK FOR 8 WK FOR A TOTAL DOSE OF 0, 5.3 MILLIMOLAR/KG (STUDY DURATION: 600-800 D), Dose: 0, 1.56 NMOL IN DRINKING WATER 5D/WK FOR 8 WK FOR A TOTAL DOSE OF 0, 5.3 MILLIMOLAR/KG (STUDY DURATION: 600-800 D), Tumor Site: Type of Lesion: ESOPHAGUS: CARCINOMA OR PAPILLOMA, STOMACH: SQUAMOUS CELL CARCINOMA, LIVER: HEPATOCELLULAR TUMOR, Tumor Site: Type of Lesion: ESOPHAGUS: CARCINOMA OR PAPILLOMA, STOMACH: SQUAMOUS CELL CARCINOMA, LIVER: HEPATOCELLULAR TUMOR active; positive | Species: MOUSE, Strain/Sex: NZC/MALE, Dose: 0, 1.56 NMOL IN DRINKING WATER 5D/WK FOR 8 WK FOR A TOTAL DOSE OF 0, 6 MILLIMOLAR/KG (STUDY DURATION: 600-800 D), Dose: 0, 1.56 NMOL IN DRINKING WATER 5D/WK FOR 8 WK FOR A TOTAL DOSE OF 0, 6 MILLIMOLAR/KG (STUDY DURATION: 600-800 D), Tumor Site: Type of Lesion: OROPHARYNX: PAPILLOMA OR CARCINOMA, ESOPHAGUS: PAPILLOMA OR CARCINOMA, STOMACH: SQUAMOUS CELL CARCINOMA, LIVER: HEPATOCE, Tumor Site: Type of Lesion: OROPHARYNX: PAPILLOMA OR CARCINOMA, ESOPHAGUS: PAPILLOMA OR CARCINOMA, STOMACH: SQUAMOUS CELL CARCINOMA, LIVER: HEPATOCE active; positive | Species: MOUSE, Strain/Sex: NZO/FEMALE, Dose: 0, 1.56 NMOL IN DRINKING WATER 5D/WK FOR 8 WK FOR A TOTAL DOSE OF 0: 6.3 MILLIMOLAR/KG (STUDY DURATION: 600-800 D), Tumor Site: Type of Lesion: OROPHARYNX: PAPILLOMA OR CARCINOMA, ESOPHAGUS: PAPILLOMA OR CARCINOMA, STOMACH: SQUAMOUS CELL CARCINOMA, LIVER: HEPATOCE, Tumor Site: Type of Lesion: OROPHARYNX: PAPILLOMA OR CARCINOMA, ESOPHAGUS: PAPILLOMA OR CARCINOMA, STOMACH: SQUAMOUS CELL CARCINOMA, LIVER: HEPATOCE active; positive | Species: MOUSE, Strain/Sex: NZO/FEMALE, Dose: 0, 50 MG/L IN DRINKING WATER 5 D/WK FOR 32 WK (TOTAL DOSE: 52 MG) (STUDY DURATION: 1.5 YR), Tumor Site: Type of Lesion: OROPHARYNX: SQUAMOUS CELL CARCINOMA, SQUAMOUS CELL ADENOMA, STOMACH: SQUAMOUS CELL CARCINOMA, SQUAMOUS CELL ADENOMA, ESO, Tumor Site: Type of Lesion: OROPHARYNX: SQUAMOUS CELL CARCINOMA, SQUAMOUS CELL ADENOMA, STOMACH: SQUAMOUS CELL CARCINOMA, SQUAMOUS CELL ADENOMA, ESO active; positive | Species: MOUSE, Strain/Sex: NZO/FEMALE, Dose: 0, 200 MG/L IN DRINKING WATER 5 D/WK FOR 8 WK (TOTAL DOSE: 52 MG) (STUDY DURATION: 2 YR), Tumor Site: Type of Lesion: OROPHARYNX: SQUAMOUS CELL CARCINOMA, SQUAMOUS CELL ADENOMA, STOMACH: SQUAMOUS CELL CARCINOMA, SQUAMOUS CELL ADENOMA, ESO, Tumor Site: Type of Lesion: OROPHARYNX: SQUAMOUS CELL CARCINOMA, SQUAMOUS CELL ADENOMA, STOMACH: SQUAMOUS CELL CARCINOMA, SQUAMOUS CELL ADENOMA, ESO active; positive | Species: MOUSE, Strain/Sex: NZO/MALE, Dose: 0, 1.56 NMOL IN DRINKING WATER 5D/WK FOR 8 WK FOR A TOTAL DOSE OF 0, 6.1 MILLIMOLAR/KG (STUDY DURATION: 600-800 D), Dose: 0, 1.56 NMOL IN DRINKING WATER 5D/WK FOR 8 WK FOR A TOTAL DOSE OF 0, 6.1 MILLIMOLAR/KG (STUDY DURATION: 600-800 D), Tumor Site: Type of Lesion: OROPHARYNX: PAPILLOMA OR CARCINOMA, ESOPHAGUS: PAPILLOMA OR CARCINOMA, STOMACH: SQUAMOUS CELL CARCINOMA, LIVER: HEPATOCE, Tumor Site: Type of Lesion: OROPHARYNX: PAPILLOMA OR CARCINOMA, ESOPHAGUS: PAPILLOMA OR CARCINOMA, STOMACH: SQUAMOUS CELL CARCINOMA, LIVER: HEPATOCE active; positive | Species: MOUSE, Strain/Sex: NZO/MALE, Dose: 0, 50 MG/L IN DRINKING WATER 5 D/WK FOR 52 WK (TOTAL DOSE: 52 MG) (STUDY DURATION: 1.5 YR), Tumor Site: Type of Lesion: OROPHARYNX: SQUAMOUS CELL CARCINOMA, SQUAMOUS CELL ADENOMA, STOMACH: SQUAMOUS CELL CARCINOMA, SQUAMOUS CELL ADENOMA, ESO, Tumor Site: Type of Lesion: OROPHARYNX: SQUAMOUS CELL CARCINOMA, SQUAMOUS CELL ADENOMA, STOMACH: SQUAMOUS CELL CARCINOMA, SQUAMOUS CELL ADENOMA, ESO active; positive | Species: MOUSE, Strain/Sex: NZO/MALE, Dose: 0, 200 MG/L IN DRINKING WATER 5 D/WK FOR 8 WK (TOTAL DOSE: 52 MG) (STUDY DURATION: 2 YR), Tumor Site: Type of Lesion: OROPHARYNX: SQUAMOUS CELL CARCINOMA, SQUAMOUS CELL ADENOMA, STOMACH: SQUAMOUS CELL CARCINOMA, SQUAMOUS CELL ADENOMA, ESO, Tumor Site: Type of Lesion: OROPHARYNX: SQUAMOUS CELL CARCINOMA, SQUAMOUS CELL ADENOMA, STOMACH: SQUAMOUS CELL CARCINOMA, SQUAMOUS CELL ADENOMA, ESO active; positive | Species: MOUSE, Strain/Sex: NZY/FEMALE, Dose: 0, 1.56 NMOL IN DRINKING WATER 5D/WK FOR 8 WK FOR A TOTAL DOSE OF 0, 5.2 MILLIMOLAR/KG (STUDY DURATION: 600-800 D), Dose: 0, 1.56 NMOL IN DRINKING WATER 5D/WK FOR 8 WK FOR A TOTAL DOSE OF 0, 5.2 MILLIMOLAR/KG (STUDY DURATION: 600-800 D), Tumor Site: Type of Lesion: ESOPHAGUS: PAPILLOMA OR CARCINOMA, STOMACH: SQUAMOUS CELL CARCINOMA active; positive | Species: MOUSE, Strain/Sex: NZY/MALE, Dose: 0, 1.56 NMOL IN DRINKING WATER 5D/WK FOR 8 WK FOR A TOTAL DOSE OF 0, 5.4 MILLIMOLAR/KG (STUDY DURATION: 600-800 D), Dose: 0, 1.56 NMOL IN DRINKING WATER 5D/WK FOR 8 WK FOR A TOTAL DOSE OF 0, 5.4 MILLIMOLAR/KG (STUDY DURATION: 600-800 D), Tumor Site: Type of Lesion: ESOPHAGUS: PAPILLOMA OR CARCINOMA, STOMACH: SQUAMOUS CELL CARCINOMA, LIVER: HEPATOCELLULAR TUMOR, Tumor Site: Type of Lesion: ESOPHAGUS: PAPILLOMA OR CARCINOMA, STOMACH: SQUAMOUS CELL CARCINOMA, LIVER: HEPATOCELLULAR TUMOR active; positive | Species: RAT, Strain/Sex: F344/FEMALE, Dose: 0.9 MM (112 MG/L) IN DRINKING WATER 5/WK FOR 28 WK, Tumor Site: Type of Lesion: LIVER: CARCINOMA, SARCOMA, ESOPHAGUS: PAPILLOMA, CARCINOMA active; positive

From PubChem BioAssay AID1259411 (Chemical Carcinogenesis Research Information System (CCRIS), 2018)
